Literature values, collected in US20050188697A1, “Fluorinated ketone and fluorinated ethers as working fluids for thermal energy conversion” (HONEYWELL CORPORATION, priority 2004, published 2005).

What was measured:
[1] = at 1 atmosphere
[2] = for Critical Temperature, Tc: Table 4 input

SMILES | Flame Limits [1] | Critical Temperature, Tc [2] | Heat Capacity (liquid, 25° C.) [2] | temperature at which toxic HCFC-133a is formed (thermal decomposition) | maximum temperature (thermal limitation) (to avoid formation of toxic HCFC-133a via thermal decomposition)
COC(F)(F)C(F)(F)C(F)(F)C(F)(F)F [Methyl (perfluorobutyl) ether, 1-methoxynonafluorobutane] | None | 195.3 °C | 293.8 J/g-mol K | – | –
FC(F)(F)C(Cl)Cl [HCFC-123, 1,1-dichloro-2,2,2-trifluoroethane, reference compound] | None | 183.6 °C | 160.3 J/g-mol K | below 300 ° F. | 121.0 °C
O=C(C(F)(F)C(F)(F)F)C(F)(C(F)(F)F)C(F)(F)F [Perfluoroethyl perfluoroisopropyl ketone, dodecafluoro-2-methylpentan-3-one] | None | 168.7 °C | 348.5 J/g-mol K | – | –
COC(F)(F)C(F)(F)C(F)(F)F [Methyl (perfluoropropyl) ether, 1-methoxyheptafluoropropane] | None | 165.0 °C | 260.0 J/g-mol K | – | –
FC(F)CC(F)(F)F [HFC-245fa, 1,1,1,3,3-pentafluoropropane, reference compound] | None | 151.1 °C | 185.5 J/g-mol K | – | –
